The record followed here is patent US10774122B2, “ERG targeted therapy” (The Regents of the University of Michigan, priority 2017, dated 2020).

Where a SMILES comes first, the peptide text is derived from it. [ ]: non-standard residue; d: D form.

For one series, the system named is CD31^+ vessels. Also noted: species or system mice. As to conditions: mouse, in vivo. The text has this: (M) The quantitative data of IHC staining.
The next series concerns VCaP cells. Format: cell-based. On the procedure:
The samples were treated with SDS loading buffer supplied with 10 mM DTT for 5 min at 85° C. The proteins were alkylated by adding iodoacetamide to the final concentration of 15 mM. The samples were subjected to SDS-PAGE and the whole lanes were cut out and digested with trypsin in-gel for 2 hours. The resulting peptides were extracted, dried and resuspended in 0.1% formic acid with 5% acetonitrile prior to loading onto a trap EASY-column (Thermo Scientific) coupled to an in-house made nano HPLC column (20 cm×75 um) packed with LUNA C18 media. Analysis was performed on Velos Pro mass spectrometer (Thermo Scientific) operated in data-dependent mode using 90-min gradients in EASY-LC system (Proxeon) with 95% water, 5% acetonitrile (ACN), 0.1% formic acid (FA) (solvent A), and 95% ACN, 5% water, 0.1% FA (solvent B) at a flow rate of 220 nl/min. […]
The resulting spectrum files were transformed into MGF format by MSConvert software and interrogated by MASCOT 2.4 search engine using human UniProt database version 15 concatenated with reverse sequences for estimation of false discovery rate (FDR) and with a list of common contaminants. […] The peptide FDR was calculated as 2×(decoy_hits)/(target+decoy hits). Spectral counts for all detected proteins were assembled using an in-house written Python script. […]

Another series deals with T1, ERG:DNA-PKcs interaction (Homo sapiens, UniProt P11308).
T1 sequence (P11308 33-479 limits assumed): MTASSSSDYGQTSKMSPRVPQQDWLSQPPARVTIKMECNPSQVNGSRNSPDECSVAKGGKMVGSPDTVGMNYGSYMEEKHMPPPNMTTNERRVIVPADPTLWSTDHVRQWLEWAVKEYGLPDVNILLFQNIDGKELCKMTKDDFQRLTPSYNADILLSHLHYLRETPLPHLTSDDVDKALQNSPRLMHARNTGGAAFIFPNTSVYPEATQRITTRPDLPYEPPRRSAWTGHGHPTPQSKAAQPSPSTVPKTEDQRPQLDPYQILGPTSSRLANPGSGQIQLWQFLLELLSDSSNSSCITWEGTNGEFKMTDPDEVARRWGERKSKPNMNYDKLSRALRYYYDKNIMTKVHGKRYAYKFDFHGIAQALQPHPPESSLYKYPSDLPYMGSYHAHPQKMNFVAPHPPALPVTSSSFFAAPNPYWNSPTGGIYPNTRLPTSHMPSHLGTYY
As to conditions: mouse, in vivo, 25 mg/kg.

A further series concerns the target ERG protein (Homo sapiens, UniProt P11308). As to conditions: mouse, in vivo.
In a further series the target is T2, ERG (Homo sapiens, UniProt P11308).
T2 sequence (P11308 1-479): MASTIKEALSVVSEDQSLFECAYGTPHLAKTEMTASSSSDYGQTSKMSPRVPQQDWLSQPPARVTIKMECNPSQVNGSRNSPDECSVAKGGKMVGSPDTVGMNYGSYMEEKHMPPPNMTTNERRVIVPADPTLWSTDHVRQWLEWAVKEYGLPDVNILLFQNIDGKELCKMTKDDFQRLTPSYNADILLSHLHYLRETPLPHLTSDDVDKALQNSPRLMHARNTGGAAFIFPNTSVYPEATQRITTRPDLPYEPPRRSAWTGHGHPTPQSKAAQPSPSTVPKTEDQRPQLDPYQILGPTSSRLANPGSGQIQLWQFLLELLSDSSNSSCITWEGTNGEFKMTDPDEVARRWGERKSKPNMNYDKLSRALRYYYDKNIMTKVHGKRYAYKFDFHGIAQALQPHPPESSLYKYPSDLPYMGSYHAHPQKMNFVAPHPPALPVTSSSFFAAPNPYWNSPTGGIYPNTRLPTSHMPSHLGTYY

Experimental for ERG protein: VCaP cells were seeded in 6-well plates at 0.5×10^6 cells/ml and after allowing cells to attach, cells were harvested and homogenized in NP40 lysis buffer (Sigma) containing a complete protease inhibitor cocktail (Roche). Ten micrograms of each protein extract was boiled in SDS sample buffer, size fractionated by SDS-PAGE, and transferred onto a PVDF membrane (GE Healthcare). […] Following three washes in TBS-T, the blots were incubated with horseradish peroxidase conjugated secondary antibody and the signals visualized by enhanced chemiluminescence system according to manufacturer's instructions (GE Healthcare).
(§1) Cell pellets or tumors treated with or without the peptidomimetics were lysed in cell lysis buffer (20 mM MOPS, pH 7.0, 2 mM EGTA, 5 mM EDTA, 30 mM sodium fluoride, 60 mM β-glycerophosphate, 20 mM sodium pyrophosphate, 1 mM sodium orthovanadate, 1% Triton X-100, 1 mM DTT, protease inhibitor cocktail (Roche)). Cell lysates (0.5-1.0 mg) were pre-cleaned with protein A/G agarose beads (Santa Cruz) by incubation for 1 hour with shaking at 4° C. followed by centrifugation at 2000 rpm for 3 minute. Lysates were then incubated with 2 μg ERG antibody (Santa Cruz, C-17) at 4° C. for 4 hours with shaking prior to addition of 20 μl protein A/G agarose beads and incubated at 4° C. overnight. […] Samples were then analyzed by SDS-PAGE and Western blot analysis as described above.
Experimental for ERG:DNA-PKcs interaction: as §1
VCaP xenografted mice were injected with a single dose of 25 mg/kg biotinylated RI-EIP1 and serum and tumors were collected at varying time intervals as indicated.

`CC(C)C[C@@H](NC(=O)[C@H]1CCCN1C(=O)[C@H]1CCCN1C(=O)[C@@H](Cc1ccc(O)cc1)NC(=O)[C@@H](CC(C)C)NC(=O)[C@@H](Cc1ccccc1)NC(=O)[C@H](NC(=O)CNC(=O)CNC(=O)[C@@H](CCCNC(=N)N)NC(=O)[C@@H](CCCCN)NC(=O)[C@@H](CCCCN)NC(=O)[C@@H](CCCNC(=N)N)NC(=O)[C@@H](CCCNC(=N)N)NC(=O)[C@@H](CCC(N)=O)NC(=O)[C@@H](CCCNC(=N)N)NC(=O)[C@@H](CCCNC(=N)N)NC(=O)[C@@H](CCCNC(=N)N)NC(=O)CN)[C@H](C)O)C(=O)O` [RI-EIP1] (H-G[dR][dR][dR][dQ][dR][dR][dK][dK][dR]GG[dT][dF][dL][dY][dP][dP][dL]-OH): the “angiogenesis by number of CD31^+ vessels in FFPE sections” value with CD31^+ vessels is “did not alter angiogenesis”. In addition, the “depletion of ERG among 3020 proteins identified” value in the series with VCaP cells was “most significantly depleted”. At ERG:DNA-PKcs interaction, the “ERG:DNA-PKcs interaction in VCaP xenograft tumors” value is given as “blocked”. Moreover, the “ERG protein in VCaP xenograft tumors” value at ERG protein is on record as “substantial degradation”. On ERG, the “soluble ERG protein in VCaP versus HUVEC cells (CETSA)” value is reported as “clear difference”.
